According to patent publication US9779901B2, “High temperature material compositions for high temperature thermal cutoff devices” (Therm-O-Disc, Incorporated, priority 2008, dated 2017):
Counter-ions that a name gives are not always drawn.

conditions: not given

Row | SMILES | Melting Point [°C]
1 | Cc1ccc2cnc(O)cc2c1 [Example 204] | 265
2 | NC(=O)c1c2ccccc2nc2ccccc12 [Example 178] | 263 to 264
3 | Oc1cc2c3ccccc3ccc2c2ccccc12 [Example 68] | 248 to 250
4 | Cc1[nH]nc2c1N(c1ccccc1)C(=O)CC(=O)N2C [Example 159] | 262
5 | Oc1cc2cc3c(ccc4ccccc43)cc2c2ccccc12 [Example 173] | 263 to 264
6 | O=c1c2ccccc2[nH]c2c([N+](=O)[O-])cccc12 [Example 164] | 262
7 | Nc1nc(N)nc(Cc2ccccc2)n1 [Example 39] | 245
8 | O=[N+]([O-])c1ccc(NN=Cc2ccccn2)cc1 [Example 181] | 264
9 | O=c1cc2[nH]c3ccccc3oc-2cc1=O [Example 185] | 264 to 265
10 | c1ccc(-c2n[nH]c(-c3ccccc3)c2-c2ccccc2)cc1 [Example 189] | 265
11 | Cc1ccc2cc3cc(C)ccc3cc2c1 [Example 80] | 250
12 | NC(=O)C1c2ccccc2-c2ccccc21 [Example 86] | 251
13 | COc1c(O)cc2c(c1OC)-c1ccc(OC)c(=O)cc1C(NC=O)CC2 (centres unmarked) [Example 175] | 263 to 267
14 | NC(=O)CCCC[C@@H]1SC[C@@H]2NC(=O)N[C@@H]21 [Example 13] | 242 to 244
15 | c1cnc2c(ccc3nccnc32)n1 [Example 20] | 242
16 | Nc1ccn(C2C=CC(N)C(C(=O)O)O2)c(=O)n1 (centres unmarked) [Example 35] | 244 to 245
17 | NNc1ccc(C(N)=O)nn1 [Example 72] | 249 to 250
18 | c1cnc2[nH]cnc2n1 [Example 128] | 258 to 259
19 | Oc1cccc2nc3ccccc3cc12 [Example 84] | 230
20 | CC1NCCc2c1[nH]c1cc(O)ccc21 (centres unmarked) (as salt: hydrochloride) [Example 100] | 254 to 255
21 | CN[C@H]1CC[C@@H](c2ccccc2)c2ccccc21 (as salt: hydrochloride) [Example 6] | 241 to 242
22 | O=c1nc(Cc2ccccc2)[nH]c2ccccc12 [Example 102] | 254 to 256
23 | c1ccc2cc3c(ccc4cc5ccccc5cc43)cc2c1 [Example 123] | 257
24 | Nc1nc(N)nc(Cc2ccccc2)n1 [Example 67] | 248
25 | CC(=O)Oc1c(C)c(C)c2c(c1C)CCC(C)(CCN(C)C)O2 (centres unmarked) (as salt: hydrochloride) [Example 172] | 263 to 270
26 | CC(C)C(=O)OC1C[C@H]2CC[C@@H](C1)N2C (some centres unmarked) [Example 14] | 242
27 | N#CC(CCN1CCC(C(=O)ON2C(=O)CCC2=O)(c2ccccc2)CC1)(c1ccccc1)c1ccccc1 (as salt: hydrochloride) [Example 17] | 242 to 244

conditions: estimated melting point temperature ranges of candidate organic compounds (Table 2); some compounds have several values, partly in parentheses, because analytic techniques differ; cited from earlier work

Row | SMILES | Melting Point
28 | Nc1ccc2nc(N)nc(N)c2c1 [Example 109] | 255-258° ° C.
29 | Cc1ccc2cnc(O)cc2c1 [Example 204] | 265° ° C.
30 | NC(=O)c1c2ccccc2nc2ccccc12 [Example 178] | 263-264° ° C.
31 | Oc1cc2c3ccccc3ccc2c2ccccc12 [Example 68] | 248-250° ° C.
32 | Cc1[nH]nc2c1N(c1ccccc1)C(=O)CC(=O)N2C [Example 159] | 262° ° C.
33 | O=C1C2C(c3ccccc3)NC(c3ccccc3)C1C(c1ccccc1)NC2c1ccccc1 (centres unmarked) [Example 106] | 255-256° ° C.
34 | NC1=CC(=O)c2cccnc2C1=O [Example 177] | 263° ° C.
35 | Oc1cc2cc3c(ccc4ccccc43)cc2c2ccccc12 [Example 173] | 263-264° ° C.
36 | O=C(Nc1ccccc1)Nc1ccccc1 [Example 49] | 246-248° ° C.
37 | O=c1c2ccccc2[nH]c2c([N+](=O)[O-])cccc12 [Example 164] | 262° ° C.
38 | Nc1nc(N)nc(Cc2ccccc2)n1 [Example 39] | 245° ° C.
39 | O=[N+]([O-])c1ccc(NN=Cc2ccccn2)cc1 [Example 181] | 264° ° C.
40 | O=c1cc2[nH]c3ccccc3oc-2cc1=O [Example 185] | 264-265° ° C.
41 | c1ccc(-c2n[nH]c(-c3ccccc3)c2-c2ccccc2)cc1 [Example 189] | 265° ° C.
42 | NC(=O)C1c2ccccc2-c2ccccc21 [Example 86] | 251° ° C.
43 | COc1c(O)cc2c(c1OC)-c1ccc(OC)c(=O)cc1C(NC=O)CC2 (centres unmarked) [Example 175] | 263-267° ° C.
44 | NC(=O)CCCC[C@@H]1SC[C@@H]2NC(=O)N[C@@H]21 [Example 13] | 242-244° ° C.
45 | c1cnc2c(ccc3nccnc32)n1 [Example 20] | 242° ° C.
46 | Nc1ccn(C2C=CC(N)C(C(=O)O)O2)c(=O)n1 (centres unmarked) [Example 35] | 244-245° ° C.
47 | COc1cccc2c1CCCC2N (centres unmarked) [Example 76] | 249-250° ° C.
48 | OC1C2CC3CC(C2)CC1C3 (centres unmarked) [Example 140] | 260-265° ° C.
49 | NNc1ccc(C(N)=O)nn1 [Example 72] | 249-250° ° C.
50 | c1cnc2[nH]cnc2n1 [Example 128] | 258-259° ° C.
51 | c1ccc(-c2c3ccccc3c(-c3ccccc3)c3ccccc23)cc1 [Example 54] | 246-248° ° C.
52 | Nc1ccc(N=Nc2ccc(N)cc2)cc1 [Example 81] | 250° ° C.
53 | O=c1ccc2[nH]cc(C3=CCNCC3)c2[nH]1 [Example 66] | 248° ° C.
54 | c1ccc2c(C(c3c[nH]c4ccccc34)c3c[nH]c4ccccc34)c[nH]c2c1 [Example 38] | 244-246° ° C.

Row | SMILES | Melting Point
55 | CC(=O)[C@H]1CC[C@H]2[C@@H]3CCc4cc(O)ccc4[C@H]3CC[C@]12C [Example 65] | 247-249° ° C.
56 | O=C(Nc1ccccc1)C(=O)Nc1ccccc1 [Example 91] | 252-254° ° C.
57 | OCC(CO)(CO)CO [Example 144] | 260° ° C.
58 | Cn1c(=S)c2c(ncn2C)n(C)c1=O [Example 52] | 246-247° ° C.
59 | NC1=CC(=O)c2ncccc2C1=O [Example 131] | 258-260° ° C.
60 | O=C1CN(N=C/C=C/c2ccc([N+](=O)[O-])o2)C(=O)N1 [Example 151] | 261° ° C.
61 | Nc1nc(N)c2ccccc2n1 [Example 78] | 250-252° ° C.
62 | Cc1cc(C)c(C#N)c(=S)[nH]1 [Example 134] | 259-260° ° C.
63 | COc1nc(C)nc(N)n1 [Example 135] | 259-261° ° C.
64 | CN(C)c1ncnc2nc[nH]c12 [Example 89] | 251-253° ° C.
65 | Nc1cccc2c1C(=O)c1ccccc1C2=O [Example 96] | 253-254° ° C.
66 | Oc1ccc2cccc(O)c2n1 [Example 146] | 260° ° C.
67 | CCCOc1ccccc1-c1nc2nn[nH]c2c(=O)[nH]1 [Example 1] | 241° ° C.
68 | CN[C@H]1CC[C@@H](c2ccccc2)c2ccccc21 [Example 6] | 241-242° ° C.
69 | O=[N+]([O-])c1c2ccccc2c2ccc3cccc4ccc1c2c43 [Example 111] | 255-256° ° C.
70 | COc1ccc(-c2cc(=O)c3ccc(O)cc3o2)cc1 [Example 196] | 265-267° ° C.
71 | Cc1cc2cc3ccccc3cc2cc1C [Example 93] | 252° ° C.
72 | O=C1C=CC=CC1=C1Nc2ccccc2N1 [Example 15] | 242° ° C.
73 | CN1C(=O)C(=NNC(N)=S)c2ccccc21 [Example 43] | 245° ° C.
74 | Oc1nc2ccccc2nc1-c1ccccc1 [Example 64] | 247° ° C.
75 | NC(=O)c1cccc2nc3ccccc3nc12 [Example 42] | 245-246° ° C.
76 | Cc1ccc2c(c1)[nH]c1ccccc12 [Example 133] | 259° ° C.
77 | CCCC1C(=O)N2C(N(C)C)=Nc3ccc(C)cc3N2C1=O (centres unmarked) [Example 62] | 247-248° ° C.
78 | Nc1nnc(-c2ccccc2)o1 [Example 9] | 241-243° ° C.
79 | Cc1ccc(NC(=O)Nc2ccc(C)cc2)cc1 [Example 167] | 262-263° ° C.
80 | Nc1cc(N)nc(N)n1 [Example 70] | 249-251° ° C.
81 | O=C1C(=O)c2cccc3cccc1c23 [Example 27] | 243-245° ° C.

Row | SMILES | Melting Point
82 | [H]/N=C(\N/C(=N/[H])Nc1ccc(Cl)cc1)NC(C)C [Example 30] | 244-245° ° C.
83 | CC(C)c1nc2nc(N)nc(N)c2nc1C(C)C [Example 55] | 246° ° C.
84 | Oc1cc(-c2ccccc2)nc2ccccc12 [Example 114] | 255-257° ° C.
85 | CC(=O)Oc1c(C)c(C)c2c(c1C)CCC(C)(CCN(C)C)O2 (centres unmarked) [Example 172] | 263-270° ° C.
86 | C[C@]12CC[C@@H]3c4ccc(O)cc4C=C[C@H]3[C@@H]1CCC2=O [Example 186] | 264-265° ° C.
87 | COC(=O)c1cc2c(cn1)[nH]c1ccccc12 [Example 153] | 261-262° ° C.
88 | CC1(C)Oc2ccc(C#N)cc2[C@@H](N2CCCC2=O)[C@@H]1O [Example 18] | 242-244° ° C.
89 | O=C1C(=O)c2cccnc2-c2ncccc21 [Example 126] | 258° ° C.
90 | Nc1ccc(S(=O)(=O)Nc2cnc3ccccc3n2)cc1 [Example 58] | 247-248° ° C.
91 | c1ccc(Nc2ccc(-c3ccc(Nc4ccccc4)cc3)cc2)cc1 [Example 32] | 244-245° ° C.
92 | COc1ccc2nc(S)[nH]c2c1 [Example 170] | 263-264° ° C.
93 | N#CC(CCN1CCC(C(=O)ON2C(=O)CCC2=O)(c2ccccc2)CC1)(c1ccccc1)c1ccccc1 [Example 17] | 242-244° ° C.
94 | N#Cc1cncnc1N [Example 104] | 254-256° ° C.
95 | Nc1nc2ccc([N+](=O)[O-])cc2s1 [Example 97] | 253° ° C.
96 | CN/C(=N\c1ccc(C2=NNC(=O)CC2C)cc1)NC#N (centres unmarked) [Example 180] | 264-265° ° C.
97 | Cl.c1ccc(N=C(Nc2ccccc2)Nc2ccccc2)cc1 [Example 3] | 241° ° C.
98 | Cc1ccc2cc3ccc(C)cc3cc2c1 [Example 7] | 241° ° C.
99 | CCC(N)Cc1cc(OC)c(C)cc1OC (centres unmarked) [Example 46] | 245-246.5° ° C.
100 | Cn1c(=O)c2[nH]cnc2n(C)c1=O [Example 179] | 264° ° C.
101 | c1cc(-c2sc(-c3ccncc3)c(-c3ccncc3)c2-c2ccncc2)ccn1 [Example 116] | 256-258° ° C.
102 | Cn1c(=O)c(=O)n(C)c2ccccc21 [Example 120] | 256-258° ° C.
103 | NC(=O)c1ccc(Oc2ccc(C(N)=O)cc2)cc1 [Example 193] | 265° ° C.
104 | C[C@]12CCC(=O)C[C@H]1CC[C@@H]1[C@@H]2CC[C@]2(C)[C@@H](c3ccc(=O)oc3)CC[C@]12O [Example 16] | 242-245° ° C.
105 | Cc1c(C)c2cccnc2c2ncccc12 [Example 195] | 265-266° ° C.
106 | N#Cc1cc(C#N)cc(C#N)c1 [Example 157] | 261-263° ° C.
107 | CCCN(CCC)CCc1cccc2c1CC(=O)N2 [Example 2] | 241-243° ° C.
